Laboratory results taken from patent US20240100170A1, “CYCLIC-AMP RESPONSE ELEMENT BINDING PROTEIN (CBP) AND/OR ADENOVIRAL E1A BINDING PROTEIN OF 300 KDA (P300) DEGRADATION COMPOUNDS AND METHODS OF USE” (CULLGEN (SHANGHAI), INC., priority 2020, published 2024).
Read-outs that look alike come from different tables or passages of the source.

Key:
[1] = tested on: LNCaP prostate cancer cell; assay: LNCaP cell viability (CellTiter-Glo); type: cell-based; conditions: Homo sapiens, 72 h, LNCaP cell viability, 3 days, CellTiter-Glo
Description: LNCaP cells seeded in 96-well plates were treated with 10 μM GNE-781 or selected bivalent compounds, i.e. P-001, P-002, and P-019, following a 12-point 3-fold serial dilution. Three days after treatment, cell viability was determined using the CellTiter-Glo kit (Promega) following manufacturer's instructions. Cell viability was normalized to the mean values of 3 replicates of untreated cells. Dose-dependent response was analyzed following the least-squares non-linear regression method using the GraphPad Prism 5.0 software.
LNCaP (clone FGC), 22RV1 and other cells were cultured at 37° C. with 5% CO 2 in RPMI 1640 Medium supplemented with 10% fetal bovine serum. Cells were authenticated using the short tandem repeat (STR) assays. Mycoplasma test results were negative.
Cells were seeded at a density of 5000 cells per well in 96-well assay plates and treated with test compounds following a 12-point 3-fold serial dilution. Three days later, cell viability was determined using the CellTiter-Glo assay kit according to the manufactureR's instructions. The dose-response curves were determined and IC50 values were calculated using the GraphPad Prism software following a nonlinear regression (least squares fit) method.

P300 = P300 (Homo sapiens, UniProt Q09472); assay: percentage of inhibition (degradation) of p300 at 10 nM, Tables 2-4; type: cell-based; design: LNCaP or 22RV1 cells that express CBP/P300 proteins were treated with GNE-781 or the bivalent compounds; endogenous in cells; host or cells: LNCaP or 22RV1 (not given); conditions: p300, 10 nM; for inhibition at 0.01 µM: read-out: Degradation (10 nM); for Degradation (10 nM): Table 3
Description: Cultured cells or tissue chunks were washed with cold PBS once and lysed in cold RIPA buffer supplemented with protease inhibitors and phosphatase inhibitors (Beyotime Biotechnology). The solutions were then incubated at 4° C. for 30 minutes with gentle agitation to fully lyse cells. Cell lysates were centrifuged at 13,000 rpm for 10 minutes at 4° C. and pellets were discarded. Total protein concentrations in the lysates were determined by BCA assays (Beyotime Biotechnology). Cell lysates were mixed with Laemmli loading buffer to 1 X and heated at 99° C. for 5 min. Proteins were resolved on SDS-PAGE and visualized by chemiluminescence. Images were taken by a ChemiDoc MP Imaging system (Bio-Rad). Protein bands were quantitated using the accompanied software provided by Bio-Rad.

Sequence of P300 (Q09472 whole entry): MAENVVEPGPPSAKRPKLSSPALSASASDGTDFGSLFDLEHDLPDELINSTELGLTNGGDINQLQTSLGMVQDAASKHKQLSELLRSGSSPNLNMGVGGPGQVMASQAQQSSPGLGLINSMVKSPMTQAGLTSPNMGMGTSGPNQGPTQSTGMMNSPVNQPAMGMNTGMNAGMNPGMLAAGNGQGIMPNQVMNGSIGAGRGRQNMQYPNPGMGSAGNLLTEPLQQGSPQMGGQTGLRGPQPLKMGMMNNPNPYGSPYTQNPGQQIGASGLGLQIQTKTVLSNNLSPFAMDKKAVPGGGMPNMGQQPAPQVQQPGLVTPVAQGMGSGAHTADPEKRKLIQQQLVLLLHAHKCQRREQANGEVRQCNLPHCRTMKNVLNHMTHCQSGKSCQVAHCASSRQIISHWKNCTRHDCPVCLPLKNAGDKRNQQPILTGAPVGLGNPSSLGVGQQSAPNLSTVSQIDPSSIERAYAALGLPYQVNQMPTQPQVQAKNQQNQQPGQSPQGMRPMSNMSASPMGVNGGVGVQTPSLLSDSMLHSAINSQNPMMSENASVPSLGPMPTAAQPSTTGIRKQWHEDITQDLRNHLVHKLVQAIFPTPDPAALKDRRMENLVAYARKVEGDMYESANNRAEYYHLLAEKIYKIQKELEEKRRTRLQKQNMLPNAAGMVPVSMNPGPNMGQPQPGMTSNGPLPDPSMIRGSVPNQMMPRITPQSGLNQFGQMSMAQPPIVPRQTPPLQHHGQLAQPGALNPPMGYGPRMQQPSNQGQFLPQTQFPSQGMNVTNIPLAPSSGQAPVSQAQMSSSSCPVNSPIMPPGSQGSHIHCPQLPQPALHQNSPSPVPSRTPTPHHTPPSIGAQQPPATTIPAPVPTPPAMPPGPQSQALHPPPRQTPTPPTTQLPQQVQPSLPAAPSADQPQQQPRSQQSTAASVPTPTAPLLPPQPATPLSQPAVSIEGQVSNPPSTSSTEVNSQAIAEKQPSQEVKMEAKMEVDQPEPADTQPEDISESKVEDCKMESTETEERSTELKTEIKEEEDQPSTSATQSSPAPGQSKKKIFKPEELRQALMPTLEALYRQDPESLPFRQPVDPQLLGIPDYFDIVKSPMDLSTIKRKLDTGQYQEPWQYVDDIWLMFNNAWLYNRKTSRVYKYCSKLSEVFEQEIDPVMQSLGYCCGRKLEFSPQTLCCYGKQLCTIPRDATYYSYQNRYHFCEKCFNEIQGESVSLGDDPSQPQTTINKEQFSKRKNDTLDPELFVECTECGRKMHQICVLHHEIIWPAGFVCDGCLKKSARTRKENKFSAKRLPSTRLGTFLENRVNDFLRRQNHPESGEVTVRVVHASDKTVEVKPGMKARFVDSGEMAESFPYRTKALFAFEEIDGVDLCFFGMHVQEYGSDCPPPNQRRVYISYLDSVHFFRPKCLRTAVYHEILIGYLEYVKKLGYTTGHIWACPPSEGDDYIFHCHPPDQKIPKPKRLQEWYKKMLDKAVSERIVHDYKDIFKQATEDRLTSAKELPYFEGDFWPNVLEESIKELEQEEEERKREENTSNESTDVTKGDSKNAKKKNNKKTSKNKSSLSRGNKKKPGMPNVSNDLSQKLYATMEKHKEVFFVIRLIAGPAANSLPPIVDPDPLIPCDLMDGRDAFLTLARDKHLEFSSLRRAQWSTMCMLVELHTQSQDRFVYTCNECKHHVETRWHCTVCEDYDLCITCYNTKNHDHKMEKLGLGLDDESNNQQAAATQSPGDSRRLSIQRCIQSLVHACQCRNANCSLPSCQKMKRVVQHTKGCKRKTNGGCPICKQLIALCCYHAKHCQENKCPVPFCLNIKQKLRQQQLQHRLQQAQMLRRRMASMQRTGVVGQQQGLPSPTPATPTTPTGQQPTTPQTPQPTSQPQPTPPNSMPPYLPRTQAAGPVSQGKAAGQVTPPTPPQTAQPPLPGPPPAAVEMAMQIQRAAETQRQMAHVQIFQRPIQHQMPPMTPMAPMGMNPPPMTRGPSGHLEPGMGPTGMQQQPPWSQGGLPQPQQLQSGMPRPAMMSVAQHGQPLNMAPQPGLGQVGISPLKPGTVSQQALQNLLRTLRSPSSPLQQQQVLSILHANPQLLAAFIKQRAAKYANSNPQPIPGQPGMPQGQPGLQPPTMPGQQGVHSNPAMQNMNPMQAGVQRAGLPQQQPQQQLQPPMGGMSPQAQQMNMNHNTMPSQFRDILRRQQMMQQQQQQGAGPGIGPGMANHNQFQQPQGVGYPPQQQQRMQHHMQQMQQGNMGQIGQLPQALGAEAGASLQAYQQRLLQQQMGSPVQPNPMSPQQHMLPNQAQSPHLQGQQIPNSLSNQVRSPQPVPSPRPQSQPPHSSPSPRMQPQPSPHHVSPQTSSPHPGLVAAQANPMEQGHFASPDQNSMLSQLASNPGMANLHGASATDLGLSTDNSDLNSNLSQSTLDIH

| IC50 ([1]; Table 4) | inhibition at 0.01 µM (P300; Table 4) | Compound | further results |
| --- | --- | --- | --- |
| 43.7 nM | 50 to 80% | CC(=O)N1CCc2c(c(N3CCCc4cc(-c5cnn(C)c5)c(C(F)F)cc43)nn2C2CCN(C(=O)CCCN3CCC(C#Cc4cccc5c4ccn5C4CCC(=O)NC4=O)CC3)CC2)C1 (stereo not drawn) [P-223, 3-(4-((1-(4-(4-(5-Acetyl-3-(7-(difluoromethyl)-6-(1-methyl-1H-pyrazol-4-yl)-3,4-dihydroquinolin-1(2H)-yl)-4,5,6,7-tetrahydro-1H-pyrazolo[4,3-c]pyridin-1-yl)piperidin-1-yl)-4-oxobutyl)piperidin-4-yl)ethynyl)-1H-indol-1-yl)piperidine-2,6-dione] |  |
| 64.7 nM | 20 to 50% | CC(=O)N1CCc2c(c(N3CCCc4cc(-c5cnn(C)c5)c(C(F)F)cc43)nn2C2CCN(C(=O)CN3CCN(CC#Cc4ccc5c(c4)n(C)c(=O)n5C4CCC(=O)NC4=O)CC3)CC2)C1 (stereo not drawn) [P-219, 3-(5-(3-(4-(2-(4-(5-Acetyl-3-(7-(difluoromethyl)-6-(1-methyl-1H-pyrazol-4-yl)-3,4-dihydroquinolin-1(2H)-yl)-4,5,6,7-tetrahydro-1H-pyrazolo[4,3-c]pyridin-1-yl)piperidin-1-yl)-2-oxoethyl)piperazin-1-yl)prop-1-yn-1-yl)-3-methyl-2-oxo-2,3-dihydro-1H-benzo[d]imidazol-1-yl)piperidine-2,6-dione] |  |
| 0.3 nM | > 80% | CC(=O)N1CCc2c(c(N3CCCc4cc(-c5cnn(C)c5)c(C(F)F)cc43)nn2C2CCN(CCCN3CCC(C#Cc4cccc5c4n(C)c(=O)n5C4CCC(=O)NC4=O)CC3)CC2)C1 (stereo not drawn) [P-250, 3-(4-((1-(3-(4-(5-acetyl-3-(7-(difluoromethyl)-6-(1-methyl-1H-pyrazol-4-yl)-3,4-dihydroquinolin-1(2H)-yl)-4,5,6,7-tetrahydro-1H-pyrazolo[4,3-c]pyridin-1-yl)piperidin-1-yl)propyl)piperidin-4-yl)ethynyl)-3-methyl-2-oxo-2,3-dihydro-1H-benzo[d]imidazol-1-yl)piperidine-2,6-dione] |  |
| 26.8 nM | 20 to 50% | CC(=O)N1CCc2c(c(N3CCCc4cc(-c5cnn(C)c5)c(C(F)F)cc43)nn2C2CCN(C(=O)CCN3CCN(Cc4ccc5c(c4)n(C)c(=O)n5C4CCC(=O)NC4=O)CC3)CC2)C1 (stereo not drawn) [P-216, 3-(5-((4-(3-(4-(5-Acetyl-3-(7-(difluoromethyl)-6-(1-methyl-1H-pyrazol-4-yl)-3,4-dihydroquinolin-1(2H)-yl)-4,5,6,7-tetrahydro-1H-pyrazolo[4,3-c]pyridin-1-yl)piperidin-1-yl)-3-oxopropyl)piperazin-1-yl)methyl)-3-methyl-2-oxo-2,3-dihydro-1H-benzo[d]imidazol-1-yl)piperidine-2,6-dione] |  |
| 9.9 nM | > 80% | CC(=O)N1CCc2c(c(N3CCCc4cc(-c5cnn(C)c5)c(C(F)F)cc43)nn2C2CCN(C(=O)CCCN3CCN(CC#Cc4cccc5c4n(C)c(=O)n5C4CCC(=O)NC4=O)CC3)CC2)C1 (stereo not drawn) [P-224, 3-(4-(3-(4-(4-(4-(5-acetyl-3-(7-(difluoromethyl)-6-(1-methyl-1H-pyrazol-4-yl)-3,4-dihydroquinolin-1(2H)-yl)-4,5,6,7-tetrahydro-1H-pyrazolo[4,3-c]pyridin-1-yl)piperidin-1-yl)-4-oxobutyl)piperazin-1-yl)prop-1-yn-1-yl)-3-methyl-2-oxo-2,3-dihydro-1H-benzo[d]imidazol-1-yl)piperidine-2,6-dione] |  |
|  |  | CC(=O)N1CCc2c(c(N3CCCc4cc(-c5cnn(C)c5)c(C(F)F)cc43)nn2C2CCN(CCN3CCC(COc4cccc5c4C(=O)N(C4CCC(=O)NC4=O)C5=O)CC3)CC2)C1 (stereo not drawn) [P-167, 4-((1-(2-(4-(5-acetyl-3-(7-(difluoromethyl)-6-(1-methyl-1H-pyrazol-4-yl)-3,4-dihydroquinolin-1(2H)-yl)-4,5,6,7-tetrahydro-1H-pyrazolo[4,3-c]pyridin-1-yl)piperidin-1-yl)ethyl)piperidin-4-yl)methoxy)-2-(2,6-dioxopiperidin-3-yl)isoindoline-1,3-dione] | IC50 ([1]; Table 3): 92 nM; Degradation (10 nM) (P300): D (D: Degradation < 20%) |
| 5.1 nM | > 80% | CC(=O)N1CCc2c(c(N3CCCc4cc(-c5cnn(C)c5)c(C(F)F)cc43)nn2C2CCN(C(=O)CNc3ccc(C(=O)NC4CCC(=O)NC4=O)c4ncccc34)CC2)C1 (stereo not drawn) [P-254, 5-((2-(4-(5-acetyl-3-(7-(difluoromethyl)-6-(1-methyl-1H-pyrazol-4-yl)-3,4-dihydroquinolin-1(2H)-yl)-4,5,6,7-tetrahydro-1H-pyrazolo[4,3-c]pyridin-1-yl)piperidin-1-yl)-2-oxoethyl)amino)-N-(2,6-dioxopiperidin-3-yl)quinoline-8-carboxamide] |  |
|  |  | CC(=O)N1CCc2c(c(N3CCCc4cc(-c5cnn(C)c5)c(C(F)F)cc43)nn2C2CCN(C(=O)CCCCCn3c(=O)n(C4CCC(=O)NC4=O)c4ccccc43)CC2)C1 (stereo not drawn) [P-107, 3-(3-(6-(4-(5-acetyl-3-(7-(difluoromethyl)-6-(1-methyl-1H-pyrazol-4-yl)-3,4-dihydroquinolin-1(2H)-yl)-4,5,6,7-tetrahydro-1H-pyrazolo[4,3-c]pyridin-1-yl)piperidin-1-yl)-6-oxohexyl)-2-oxo-2,3-dihydro-1H-benzo[d]imidazol-1-yl)piperidine-2,6-dione] | IC50 ([1]; Table 3): 20.4 nM; Degradation (10 nM) (P300): B (B: 50% ≤ Degradation < 80%) |
|  |  | CNC(=O)N1CCc2c(c(N3CCCc4cc(-c5cnn(C)c5)c(C(F)F)cc43)nn2C2CCN(C(=O)CNc3cccc4c3C(=O)N(C3CCC(=O)NC3=O)C4=O)CC2)C1 (stereo not drawn) [P-013, 3-(7-(difluoromethyl)-6-(1-methyl-1H-pyrazol-4-yl)-3,4-dihydroquinolin-1(2H)-yl)-1-(1-((2-(2,6-dioxopiperidin-3-yl)-1,3-dioxoisoindolin-4-yl)glycyl)piperidin-4-yl)-N-methyl-1,4,6,7-tetrahydro-5H-pyrazolo[4,3-c]pyridine-5-carboxamide] | inhibition at 0.01 µM (P300; Table 2): 20 to 50% |
| > 500 nM |  | CC(=O)N1CCc2c(c(N3CCCc4cc(-c5cnn(C)c5)c(C(F)F)cc43)nn2C2CCN(C(=O)CCCN3CCC(Cn4c(=O)n(C5CCC(=O)NC5=O)c5ccccc54)CC3)CC2)C1 (stereo not drawn) [P-204, 3-(3-((1-(4-(4-(5-acetyl-3-(7-(difluoromethyl)-6-(1-methyl-1H-pyrazol-4-yl)-3,4-dihydroquinolin-1(2H)-yl)-4,5,6,7-tetrahydro-1H-pyrazolo[4,3-c]pyridin-1-yl)piperidin-1-yl)-4-oxobutyl)piperidin-4-yl)methyl)-2-oxo-2,3-dihydro-1H-benzo[d]imidazol-1-yl)piperidine-2,6-dione] |  |
| 241 nM |  | CC(=O)N1CCc2c(c(N3CCCc4cc(-c5cnn(C)c5)c(C(F)F)cc43)nn2C2CCN(CCCCN3CCN(c4cccc5c4C(=O)N(C4CCC(=O)NC4=O)C5=O)CC3)CC2)C1 (stereo not drawn) [P-248, 4-(4-(4-(4-(5-Acetyl-3-(7-(difluoromethyl)-6-(1-methyl-1H-pyrazol-4-yl)-3,4-dihydroquinolin-1(2H)-yl)-4,5,6,7-tetrahydro-1H-pyrazolo[4,3-c]pyridin-1-yl)piperidin-1-yl)butyl)piperazin-1-yl)-2-(2,6-dioxopiperidin-3-yl)isoindoline-1,3-dione] |  |
| > 500 nM |  | CC(=O)N1CCc2c(c(N3CCCc4cc(-c5cnn(C)c5)c(C(F)F)cc43)nn2C2CCN(C(=O)CN3CCN(CC(=O)Nc4cccc(NC5CCC(=O)NC5=O)c4)CC3)CC2)C1 (stereo not drawn) [P-257, 2-(4-(2-(4-(5-acetyl-3-(7-(difluoromethyl)-6-(1-methyl-1H-pyrazol-4-yl)-3,4-dihydroquinolin-1(2H)-yl)-4,5,6,7-tetrahydro-1H-pyrazolo[4,3-c]pyridin-1-yl)piperidin-1-yl)-2-oxoethyl)piperazin-1-yl)-N-(3-((2,6-dioxopiperidin-3-yl)amino)phenyl)acetamide] |  |
| > 500 nM |  | CC(=O)N1CCc2c(c(N3CCCc4cc(-c5cnn(C)c5)c(C(F)F)cc43)nn2C2CCN(CCN3CCNC(COc4cccc5c4C(=O)N(C4CCC(=O)NC4=O)C5=O)C3)CC2)C1 (stereo not drawn) [P-197, 4-((4-(2-(4-(5-acetyl-3-(7-(difluoromethyl)-6-(1-methyl-1H-pyrazol-4-yl)-3,4-dihydroquinolin-1(2H)-yl)-4,5,6,7-tetrahydro-1H-pyrazolo[4,3-c]pyridin-1-yl)piperidin-1-yl)ethyl)piperazin-2-yl)methoxy)-2-(2,6-dioxopiperidin-3-yl)isoindoline-1,3-dione] |  |
